In ChEMBL document CHEMBL1201862, “PubChem BioAssay data set” (2004):
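The compound was tested at five concentrations on cells cultured in 96-well plates, with a 48-hour exposure period. Here, GI50 denotes the concentration required for 50% inhibition of growth.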 Active and inactive are the calls of the source. Cut-off read from the data, not from the text of the source: active = GI50 up to about 1.1 µM and inactive = higher.

Legend:
Test in all cases: NCI anticancer screen, dose series, 48 h
COLO 205 = system: COLO 205
HCC 2998 = system: HCC 2998
HCT-15 = system: HCT-15
HL-60 = system: HL-60
HOP-62 = system: HOP-62
KM12 = system: KM12
M14 = system: M14
NCI-H23 = system: NCI-H23
NCI-H460 = system: NCI-H460
OVCAR-3 = system: OVCAR-3
OVCAR-4 = system: OVCAR-4
RXF 393 = system: RXF 393
SF-268 = system: SF-268
SK-MEL-28 = system: SK-MEL-28
SK-MEL-2 = system: SK-MEL-2
SNB-19 = system: SNB-19
SNB-75 = system: SNB-75
SW-620 = system: SW-620
UACC-62 = system: UACC-62
RPMI-8226 = system: RPMI-8226

| SMILES | GI50 (COLO 205) | GI50 (HCC 2998) | GI50 (HCT-15) [µM] | GI50 (HL-60) | GI50 (HOP-62) | GI50 (KM12) | GI50 (M14) | GI50 (NCI-H23) | GI50 (NCI-H460) | GI50 (OVCAR-3) | GI50 (OVCAR-4) | GI50 (RXF 393) | GI50 (SF-268) | GI50 (SK-MEL-28) | GI50 (SK-MEL-2) | GI50 (SNB-19) | GI50 (SNB-75) | GI50 (SW-620) | GI50 (UACC-62) | GI50 (RPMI-8226) |
| --- | --- | --- | --- | --- | --- | --- | --- | --- | --- | --- | --- | --- | --- | --- | --- | --- | --- | --- | --- | --- |
| CN(CCCNC(=O)c1cn(C)c2c1ccc1cc(Cl)c(Cl)cc12)CCCNC(=O)c1cn(C)c2c1ccc1cc(Cl)c(Cl)cc12 | 3.18 µM (inactive) | 4 µM (inactive) | 11.9 | 2.47 µM (inactive) | 14.3 µM (inactive) | 5.31 µM (inactive) | 10.7 µM (inactive) | 14.6 µM (inactive) | 3.97 µM (inactive) | 18.2 µM (inactive) | 0.789 µM (active) | 4.42 µM (inactive) | 13.7 µM (inactive) | 18.5 µM (inactive) | 16.7 µM (inactive) | 7 µM (inactive) | 10.8 µM (inactive) | 4.19 µM (inactive) | 16.1 µM (inactive) |  |
| NC(=O)N/N=C1/c2ccccc2-n2nccc21 | 67.1 µM (inactive) | 52.5 µM (inactive) | 55.7 | 8.59 µM (inactive) | 70.1 µM (inactive) | > 100 µM (inactive) | 71.9 µM (inactive) | > 100 µM (inactive) | 45.1 µM (inactive) | 40.7 µM (inactive) | > 100 µM (inactive) | 25.9 µM (inactive) | 87.1 µM (inactive) | > 100 µM (inactive) | > 100 µM (inactive) | > 100 µM (inactive) | 28.8 µM (inactive) | > 100 µM (inactive) | 48.6 µM (inactive) |  |
| CC(C)[C@@H]1NC(=O)[C@H]2N=C(O[C@@H]2C)[C@@H]2CCCN2C(=O)[C@H](Cc2ccccc2)NC(=O)[C@@H]2CSC(=N2)[C@@H](Cc2ccccc2)NC(=O)[C@@H]2CSC1=N2 | 24.7 µM (inactive) | 21.9 µM (inactive) | 33.2 | 7.46 µM (inactive) | > 50 µM (inactive) | 25.6 µM (inactive) | > 50 µM (inactive) | > 50 µM (inactive) |  | 47 µM (inactive) | 19.8 µM (inactive) | 39 µM (inactive) | > 50 µM (inactive) | > 50 µM (inactive) | > 50 µM (inactive) | > 50 µM (inactive) | 0.216 µM (active) | > 50 µM (inactive) | > 50 µM (inactive) | 9.29 µM (inactive) |
| C=C(Cl)C(=C)CCC(Cl)C(C)(C)Cl (stereo not given) | > 100 µM (inactive) | > 100 µM (inactive) |  | > 100 µM (inactive) | > 100 µM (inactive) | > 100 µM (inactive) | > 100 µM (inactive) | > 100 µM (inactive) | > 100 µM (inactive) | > 100 µM (inactive) | > 100 µM (inactive) | > 100 µM (inactive) | > 100 µM (inactive) | > 100 µM (inactive) | > 100 µM (inactive) | > 100 µM (inactive) | > 100 µM (inactive) | > 100 µM (inactive) | > 100 µM (inactive) | > 100 µM (inactive) |
| C=CCOC1=C2CC[C@H](O)[C@@]2(C)CCC1=O | > 100 µM (inactive) | > 100 µM (inactive) | > 100 | > 100 µM (inactive) | > 100 µM (inactive) | > 100 µM (inactive) | > 100 µM (inactive) |  | > 100 µM (inactive) | > 100 µM (inactive) | > 100 µM (inactive) | > 100 µM (inactive) | > 100 µM (inactive) | > 100 µM (inactive) |  | > 100 µM (inactive) | > 100 µM (inactive) | > 100 µM (inactive) | > 100 µM (inactive) | > 100 µM (inactive) |
| Cc1nc(-n2nc(-c3ccccc3)cc2-c2ccccc2)sc1C(=O)/C=C/c1ccc(Cl)cc1 | 16.5 µM (inactive) | 16.4 µM (inactive) | 22.2 | 14.5 µM (inactive) | 13.3 µM (inactive) | 11.7 µM (inactive) |  | 16.3 µM (inactive) | 25.2 µM (inactive) | 15.9 µM (inactive) |  | 12.7 µM (inactive) | 29 µM (inactive) | 16.9 µM (inactive) | 19.6 µM (inactive) |  | 6.1 µM (inactive) | 21.5 µM (inactive) | 14.1 µM (inactive) | 5.66 µM (inactive) |
| [N-]=[N+]=NC(c1cn(C2CC(O)C(CO)O2)c(=O)[nH]c1=O)C(I)I (stereo not given) | > 100 µM (inactive) | > 100 µM (inactive) |  | > 100 µM (inactive) | > 100 µM (inactive) | > 100 µM (inactive) | > 100 µM (inactive) | 71 µM (inactive) | > 100 µM (inactive) | > 100 µM (inactive) | 75.7 µM (inactive) | > 100 µM (inactive) | 56.1 µM (inactive) | > 100 µM (inactive) | > 100 µM (inactive) | > 100 µM (inactive) |  | > 100 µM (inactive) | > 100 µM (inactive) | > 100 µM (inactive) |
| CC(=O)c1c(C)[n+]([O-])c2cc(Cl)c(Cl)cc2[n+]1[O-] | 15.7 µM (inactive) | 21.6 µM (inactive) | 12.2 | 10.4 µM (inactive) | 23.1 µM (inactive) | 10.3 µM (inactive) | 24.6 µM (inactive) | 26.4 µM (inactive) | 12 µM (inactive) | 19.9 µM (inactive) | 15.6 µM (inactive) | > 100 µM (inactive) | 28.3 µM (inactive) | 29.8 µM (inactive) | 27.6 µM (inactive) | 30.8 µM (inactive) |  | 17.7 µM (inactive) | 18.4 µM (inactive) | 5.5 µM (inactive) |
| O=C1CC(Br)c2c(Cl)sc(Cl)c21 (stereo not given) | 12.1 µM (inactive) | 12 µM (inactive) | 8.07 | 2.13 µM (inactive) | 6.01 µM (inactive) | 6.58 µM (inactive) | 9.75 µM (inactive) | 16.4 µM (inactive) | 18.2 µM (inactive) | 2.38 µM (inactive) |  | 2.39 µM (inactive) | 6.58 µM (inactive) | 13.6 µM (inactive) | 15.8 µM (inactive) | 19.3 µM (inactive) | 15.2 µM (inactive) | 1.84 µM (inactive) | 11.8 µM (inactive) | 1.43 µM (inactive) |
| CC1(C)O[C@@H]2COC(=O)[C@@H]2O1 | > 100 µM (inactive) | > 100 µM (inactive) | > 100 | > 100 µM (inactive) |  | > 100 µM (inactive) | > 100 µM (inactive) | > 100 µM (inactive) | > 100 µM (inactive) | > 100 µM (inactive) | > 100 µM (inactive) | > 100 µM (inactive) | > 100 µM (inactive) | > 100 µM (inactive) | > 100 µM (inactive) | > 100 µM (inactive) | > 100 µM (inactive) | > 100 µM (inactive) | > 100 µM (inactive) |  |
| CN(C)C(=N)NC(N)=S | > 100 µM (inactive) | > 100 µM (inactive) | > 100 | > 100 µM (inactive) | > 100 µM (inactive) | > 100 µM (inactive) | > 100 µM (inactive) | > 100 µM (inactive) | > 100 µM (inactive) | > 100 µM (inactive) | > 100 µM (inactive) | > 100 µM (inactive) | > 100 µM (inactive) | > 100 µM (inactive) |  | > 100 µM (inactive) | > 100 µM (inactive) | > 100 µM (inactive) | > 100 µM (inactive) | > 100 µM (inactive) |
| COc1ccc(-c2oc3cc(OC)c(OC)c(OC)c3c(=O)c2OC)cc1OC [HEXAMETHOXYFLAVONE] | > 100 µM (inactive) | > 100 µM (inactive) | > 100 | 20.8 µM (inactive) | > 100 µM (inactive) | > 100 µM (inactive) | > 100 µM (inactive) | > 100 µM (inactive) | > 100 µM (inactive) | > 100 µM (inactive) | > 100 µM (inactive) | > 100 µM (inactive) | > 100 µM (inactive) | > 100 µM (inactive) | > 100 µM (inactive) | > 100 µM (inactive) | > 100 µM (inactive) | > 100 µM (inactive) | > 100 µM (inactive) |  |
| O=c1[nH]c2c(nc1NC13CC4CC(CC(C4)C1)C3)c(=O)oc1ccccc12 | > 100 µM (inactive) | > 100 µM (inactive) | > 100 | > 100 µM (inactive) | 50.1 µM (inactive) | > 100 µM (inactive) | 34.3 µM (inactive) | 26.2 µM (inactive) | 70.3 µM (inactive) | > 100 µM (inactive) |  | 46.1 µM (inactive) | > 100 µM (inactive) | > 100 µM (inactive) | > 100 µM (inactive) | 62.2 µM (inactive) | 29.5 µM (inactive) | > 100 µM (inactive) | > 100 µM (inactive) | > 100 µM (inactive) |
| Clc1ccc(NCNC2Nc3ccccc3N2)cc1Cl | 35.8 µM (inactive) | 73.6 µM (inactive) | 31.1 | 41.3 µM (inactive) | 72.1 µM (inactive) | 11.9 µM (inactive) | 83.4 µM (inactive) | > 100 µM (inactive) | 24.2 µM (inactive) | 29.3 µM (inactive) |  | 30.8 µM (inactive) | 28.4 µM (inactive) | 70.5 µM (inactive) | 32 µM (inactive) | > 100 µM (inactive) | 19.8 µM (inactive) | 27.6 µM (inactive) | 2.26 µM (inactive) | 26.4 µM (inactive) |
| CCOC(=O)C(=O)C1C(=O)Nc2ccccc21 (stereo not given) | > 100 µM (inactive) | > 100 µM (inactive) |  | > 100 µM (inactive) | > 100 µM (inactive) | > 100 µM (inactive) | > 100 µM (inactive) | > 100 µM (inactive) | > 100 µM (inactive) | > 100 µM (inactive) | > 100 µM (inactive) | > 100 µM (inactive) | > 100 µM (inactive) | > 100 µM (inactive) | > 100 µM (inactive) | > 100 µM (inactive) | > 100 µM (inactive) | > 100 µM (inactive) | > 100 µM (inactive) | > 100 µM (inactive) |
